Experimental data taken from patent US8946413B2 (Pfizer Inc., priority 2008, dated 2015).
Like-named read-outs stand apart in the source and are kept apart here.

Target: T1, CCR2 (Homo sapiens, UniProt P41597)
T1 construct: (leukophoresis pack); host or cells: human peripheral blood mononuclear cells (PBMCs) from a normal human leukophoresis pack
Assay: hCCR2 (125-I hMCP-1) small molecule binding assay on human PBMCs
Conditions: 125I-MCP-1, human PBMCs
Excerpt: The CCR2 antagonist activity of compounds of the invention can be reported as the inhibitor concentration required for 50% inhibition (IC50 values) of specific binding in receptor binding assays using 125I-labeled MCP-1, as ligand, and Peripheral Blood Mononuclear Cells (PBMCs) prepared from normal human whole blood via density gradient centrifugation. Specific binding is defined as the total binding (e.g., total cpm on filters) minus the non-specific binding. Non-specific binding is defined as the amount of cpm still defected in the presence of excess unlabeled competitor (e.g., MCP-1),
Human PBMCs were used to test compounds of the invention in a binding assay. For example, 200,000 to 500,000 cells were incubated with 0.1 to 0.2 nM 125I-labeled MCP-1, with or without unlabeled competitor (10 nM MCP-1) or various concentrations of compounds to be tested. 125I-labeled MCP-1, were prepared by suitable methods or purchased from commercial vendors (Perkin Elmer, Boston Mass.). The binding reactions were performed in 50 to 250 μL of a binding buffer consisting of […] pH 7.2, and 0.1% BSA (bovine serum albumin), for 30 minutes at room temperature. The binding reactions were terminated by harvesting the membranes by rapid filtration through glass fiber filters (Perkin Elmer) which was presoaked in 0.3% polyethyleneimine or Phosphate Buffered Saline (PBS). The filters were rinsed with approximately 600 μL of binding buffer containing, 0.5 M NaCl or PBS, then dried, and the amount of bound radioactivity was determined by counting on a Gamma Counter (Perkin Elmer).
More specifically, the following assay may be employed to determine IC50 values for the compounds of the present invention.
hCCR2 (125-I hMCP-1) Small Molecule Binding Assay
Normal human leukophoresis pack contents, available from Biological Specialty Corporation, Colmar, Pa., is diluted 1:1 with PBS, divided into 50 ml conical tubes (preferably less than 40 mls per tube), and underlayed with 10 mls of Ficoll-Paque PLUS (GE Healthcare 17-1440-02). The tubes are centrifuged at 2800 rpm in a clinical centrifuge at room temperature for 30 mins, with no brake. The plasma layer is suctioned, and the buffycoat layer is collected. The collected buffycoat layer is washed twice with 50 mls PBS, and centrifuged at 1400 rpm with brake. The cells are counted. The cells are then diluted to 1×10^7 cells per ml in binding buffer.
96 well plates (such as, for example, Millipore MultiScreen96 plates) are pre-wet with about 100 μl binding buffer (RPMI+0.1% BSA+20 mM HEPES), and blotted just prior to compound addition.
5 μl of 50 μM test compounds in 100% DMSO are dotted onto U-bottom polypropylene 96-well plates.
245 μl per well of Binding Buffer is added to each well for 1 μM compound concentration in 2% DMSO.
50 μl of 1 μM compound is transferred to pre-wetted Millipore plates. 50 μl per well of 1×10E7 cells per ml of freshly prepared human PBMCs are added.
The samples are pre-incubated at room temperature for 30 minutes or 1 hour.
50 μl of 450 pM 125-I-hMCP-1 (Perkin-Elmer/NEN cat#NEX332025UC) is added for a final concentration 125-I-hMCP-1 of 150 pM per well.
The final test compound concentration is 0.333 uM in 150 μl total volume with 0.67% DMSO in all wells. Controls for this assay consist of 0% inhibition and 100% inhibition with 1 uM hMCP-1 (saturating conditions). All wells are run in duplicate. Controls may be in replicates of eight.
The samples are incubated at room temperature for 30 minutes.
The buffer is suctioned through the Millipore plates. The plates are washed three times with Wash Buffer (PRMI+0.1% BSA+20 mM HEPES+ 0.4 M NaC).
The plate underdrain is removed. The plate filters are allowed to dry. The filters are then punched out into plastic tubes.
Finally, the sample is counted an a Gamma Counter.
All IC50 plates were repeated for an n=2.
The following table summarizes the IC50 values identified through the described assay.

[1] = 30 min preincubation, read-out: IC50 (nM) 30 min preinc
[2] = 1 hr preincubation, read-out: IC50 (nM) 1 hr preinc

T1 sequence (P41597 whole entry): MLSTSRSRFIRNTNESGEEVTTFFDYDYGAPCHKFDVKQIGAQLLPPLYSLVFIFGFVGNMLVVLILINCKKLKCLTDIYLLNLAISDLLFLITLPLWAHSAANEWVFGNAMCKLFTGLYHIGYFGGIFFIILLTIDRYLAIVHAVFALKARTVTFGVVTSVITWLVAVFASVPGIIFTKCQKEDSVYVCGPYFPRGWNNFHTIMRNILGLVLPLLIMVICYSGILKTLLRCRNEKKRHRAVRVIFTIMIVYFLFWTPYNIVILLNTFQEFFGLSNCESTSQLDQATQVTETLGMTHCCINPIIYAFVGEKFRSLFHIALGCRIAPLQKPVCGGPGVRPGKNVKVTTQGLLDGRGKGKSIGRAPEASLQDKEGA

Row | IC50 [1] | IC50 [2] | Compound
1 | 57.3 nM | 11.7 nM | CO[C@@H]1COCC[C@@H]1N[C@@H]1CC[C@](CC(F)(F)F)(C(=O)N2C[C@@H]3C[C@H]2CN3c2cc(C(F)(F)F)ccn2)C1 [Example 33, 1,5-anhydro-2,3-dideoxy-4-O-methyl-3-{[(1R,3S)-3-(2,2,2-trifluoroethyl)-3-({(1S,4S)-5-[4-(trifluoromethyl)pyridin-2-yl]-2,5-diazabicyclo[2.2.1]hept-2-yl}carbonyl)cyclopentyl]amino}-D-erythro-pentitol]
2 | 66.5 nM | 6.94 nM | CO[C@@H]1COCC[C@@H]1N[C@@H]1CC[C@](CC(F)(F)F)(C(=O)N2C[C@@H]3C[C@H]2CN3c2ccnc(C(F)(F)F)c2)C1 [Example 34, 1,5-anhydro-2,3-dideoxy-4-O-methyl-3-{[(1R,3S)-3-(2,2,2-trifluoroethyl)-3-({(1S,4S)-5-[2-(trifluoromethyl)pyridin-4-yl]-2,5-diazabicyclo[2.2.1]hept-2-yl}carbonyl)cyclopentyl]amino}-D-erythro-pentitol]
3 | 28.4 nM | 5.52 nM | CO[C@@H]1COCC[C@@H]1N[C@@H]1CC[C@](CC(F)(F)F)(C(=O)N2C[C@@H]3C[C@H]2CN3c2nccc(C(F)(F)F)n2)C1 [Example 35, 1,5-anhydro-2,3-dideoxy-4-O-methyl-3-{[(1R,3S)-3-(2,2,2-trifluoroethyl)-3-({(1S,4S)-5-[4-(trifluoromethyl)pyrimidin-2-yl]-2,5-diazabicyclo[2.2.1]hept-2-yl}carbonyl)cyclopentyl]amino}-D-erythro-pentitol]
4 | 12.6 nM | 2.19 nM | CO[C@@H]1COCC[C@@H]1N[C@@H]1CC[C@](CC(F)(F)F)(C(=O)N2C[C@@H]3C[C@H]2CN3c2cccc(C(F)(F)F)n2)C1 [Example 36, 1,5-anhydro-2,3-dideoxy-4-O-methyl-3-{[(1R,3S)-3-(2,2,2-trifluoroethyl)-3-({(1S,4S)-5-[6-(trifluoromethyl)pyridin-2-yl]-2,5-diazabicyclo[2.2.1]hept-2-yl}carbonyl)cyclopentyl]amino}-D-erythro-pentitol]
5 |  | 3.68 nM | CO[C@@H]1COCC[C@@H]1N[C@@H]1CC[C@](CC(F)(F)F)(C(=O)N2C[C@@H]3C[C@H]2CN3c2cncc(C(F)(F)F)n2)C1 [Example 37]
6 | 68.7 nM | 2.02 nM | CO[C@@H]1COCC[C@@H]1N[C@@H]1CC[C@](CC(F)(F)F)(C(=O)N2C[C@@H]3C[C@H]2CN3c2ccnc(C(F)(F)F)n2)C1 [Example 38, 1,5-anhydro-2,3-dideoxy-4-O-methyl-3-{[(1R,3S)-3-(2,2,2-trifluoroethyl)-3-({(1S,4S)-5-[2-(trifluoromethyl)pyrimidin-4-yl]-2,5-diazabicyclo[2.2.1]hept-2-yl}carbonyl)cyclopentyl]amino}-D-erythro-pentitol]
7 | 82.9 nM | 5.81 nM | CO[C@@H]1COCC[C@@H]1N[C@@H]1CC[C@](CC(F)(F)F)(C(=O)N2C[C@@H]3C[C@H]2CN3c2cc(C(F)(F)F)cnn2)C1 [Example 39, 1,5-anhydro-2,3-dideoxy-4-O-methyl-3-{[(1R,3S)-3-(2,2,2-trifluoroethyl)-3-({(1S,4S)-5-[5-(trifluoromethyl)pyridazin-3-yl]-2,5-diazabicyclo[2.2.1]hept-2-yl}carbonyl)cyclopentyl]amino}-D-erythro-pentitol]
8 | 18.3 nM |  | CO[C@@H]1COCC[C@@H]1N[C@@H]1C=C[C@@](C(=O)N2C[C@@H]3C[C@H]2CN3c2cc(C(F)(F)F)ccn2)(C(C)C)C1 [Example 40, 1,5-anhydro-2,3-dideoxy-3-{[(1S,4S)-4-isopropyll-4-({(1S,4S)-5-[4-(trifluoromethyl)pyridin-2-yl]-2,5-diazabicyclo[2.2.1]hept-2-yl}carbonyl)cyclopent-2-en-1-yl]amino}-4-O-methyl-D-erythro-pentitol]
9 | 63.6 nM |  | CO[C@@H]1COCC[C@@H]1N[C@@H]1C=C[C@@](C(=O)N2C[C@@H]3C[C@H]2CN3c2nccc(C(F)(F)F)n2)(C(C)C)C1 [Example 41, 1,5-anhydro-2,3-dideoxy-3-{[(1S,4S)-4-isopropyll-4-({(1S,4S)-5-[4-(trifluoromethyl)pyrimidin-2-yl]-2,5-diazabicyclo[2.2.1]hept-2-yl}carbonyl)cyclopent-2-en-1-yl]amino}-4-O-methyl-D-erythro-pentitol]
10 | 70.9 nM |  | CO[C@@H]1COCC[C@@H]1N[C@@H]1C=C[C@@](C(=O)N2C[C@@H]3C[C@H]2CN3c2cccc(C(F)(F)F)n2)(C(C)C)C1 [Example 42, 1,5-anhydro-2,3-dideoxy-3-{[(1S,4S)-4-isopropyll-4-({(1S,4S)-5-[6-(trifluoromethyl)pyridin-2-yl]-2,5-diazabicyclo[2.2.1]hept-2-yl}carbonyl)cyclopent-2-en-1-yl]amino}-4-O-methyl-D-erythro-pentitol]
11 | 47.3 nM |  | CO[C@@H]1COCC[C@@H]1N[C@@H]1C=C[C@@](C(=O)N2C[C@@H]3C[C@H]2CN3c2cncc(C(F)(F)F)n2)(C(C)C)C1 [Example 43, 1,5-anhydro-2,3-dideoxy-3-{[(1S,4S)-4-isopropyll-4-({(1S,4S)-5-[6-(trifluoromethyl)pyrazin-2-yl]-2,5-diazabicyclo[2.2.1]hept-2-yl}carbonyl)cyclopent-2-en-1-yl]amino}-4-O-methyl-D-erythro-pentitol]
12 | 25.3 nM |  | CO[C@@H]1COCC[C@@H]1N[C@@H]1CC[C@@](C(=O)N2C[C@@H]3C[C@H]2CN3c2cccc(C(F)(F)F)n2)(C2(O)CCC2)C1 [Example 45, 1,5-anhydro-2,3-dideoxy-3-{[(1R,3S)-3-(1-hydroxycyclobutyl)-3-({(1S,4S)-5-[6-(trifluoromethyl)pyridin-2-yl]-2,5-diazabicyclo[2.2.1]hept-2-yl}carbonyl)cyclopentyl]amino}-4-O-methyl-D-erythro-pentitol]
13 | 3.19 nM |  | CO[C@@H]1COCC[C@@H]1N[C@@H]1CC[C@@](C(=O)N2C[C@@H]3C[C@H]2CN3c2cc(C(F)(F)F)ccn2)(C2(O)CCC2)C1 [Example 46, 1,5-anhydro-2,3-dideoxy-3-{[(1R,3S)-3-(1-hydroxycyclobutyl)-3-({(1S,4S)-5-[4-(trifluoromethyl)pyridin-2-yl]-2,5-diazabicyclo[2.2.1]hept-2-yl}carbonyl)cyclopentyl]amino}-4-O-methyl-D-erythro-pentitol]
14 | 6.16 nM |  | CO[C@@H]1COCC[C@@H]1N[C@@H]1CC[C@@](C(=O)N2C[C@@H]3C[C@H]2CN3c2nccc(C(F)(F)F)n2)(C2(O)CCC2)C1 [Example 47, 1,5-anhydro-2,3-dideoxy-3-{[(1R,3S)-3-(1-hydroxycyclobutyl)-3-({(1S,4S)-5-[4-(trifluoromethyl)pyrimidin-2-yl]-2,5-diazabicyclo[2.2.1]hept-2-yl}carbonyl)cyclopentyl]amino}-4-O-methyl-D-erythro-pentitol]

Row | Compound | IC50 [1] | IC50 [2]
15 | CO[C@@H]1COCC[C@@H]1N[C@@H]1CC[C@](CC(F)(F)F)(C(=O)N2C[C@@H]3C[C@H]2CN3C(=O)OC(C)(C)C)C1 [Example 44, 1,5-anhydro-3-{[(1R,3S)-3-{[(1S,4S)-5-(tert-butoxycarbonyl)-2,5-diazabicyclo[2.2.1]hept-2-yl]carbonyl}-3-(2,2,2-trifluoroethyl)cyclopentyl]amino}-2,3-dideoxy-4-O-methyl-D-erythro-pentitol] |  | 8.1 nM
